Key:
HepG2 [1] = assay: Cytotoxicity against human HepG2 cells assessed as reduction in cell viability after 48 hrs by MTT assay; type: functional, cell-based; conditions: HepG2, 48 h
[2] = Cytotoxicity against human BCG823 cells assessed as reduction in cell viability after 48 hrs by MTT assay; type: functional, cell-based; conditions: BCG823, 48 h
A549 [3] = assay: Cytotoxicity against human A549 cells assessed as reduction in cell viability after 48 hrs by MTT assay; type: functional, cell-based; conditions: A549, 48 h
HepG2 [4] = assay: Potency index, ratio of 5-fluorouracil IC50 to compound IC50 for human HepG2 cells; type: functional
A549 [5] = assay: Potency index, ratio of 5-fluorouracil IC50 to compound IC50 for human A549 cells; type: functional
[6] = Potency index, ratio of 5-fluorouracil IC50 to compound IC50 for human BCG823 cells; type: functional

| SMILES | IC50 (HepG2 [1]; read-out: IC50) [µM] | IC50 (HepG2 [1]; read-out: pIC50 (converted)) [µM] | IC50 [2] [µM] | IC50 (A549 [3]) [µM] | Ratio IC50 (HepG2 [4]) | Ratio IC50 (A549 [5]) | Ratio IC50 [6] |
| --- | --- | --- | --- | --- | --- | --- | --- |
| CNCCCCOc1c(O)cc(O)c2c(=O)cc(-c3ccccc3)oc12 | 97 | 97.7 | > 100 |  |  |  |  |
| CN(C)CCCOc1c(O)cc(O)c2c(=O)cc(-c3ccccc3)oc12 | 41.8 | 41.7 |  | > 100 |  |  |  |
| O=c1cc(-c2ccccc2)oc2c(OCCCN3CCOCC3)c(O)cc(O)c12 | 21.5 | 20.9 |  | > 100 |  |  |  |
| COc1c(OCc2nc3ccccc3[nH]2)cc(O)c2c(=O)cc(-c3ccccc3)oc12 | 29.4 | 29.5 |  | > 100 |  |  |  |
| COc1c(OCCCN2CCN(C)CC2)cc(O)c2c(=O)cc(-c3ccccc3)oc12 | 31.6 | 31.6 | 52.7 | 9.9 |  |  |  |
| CCN(CC)CCCCOc1cc(O)c2c(=O)cc(-c3ccccc3)oc2c1OC | 1.72 | 1.74 | 6.17 | 1 |  |  |  |
| COc1c(OCCCCN(CCO)CCO)cc(O)c2c(=O)cc(-c3ccccc3)oc12 | 2.64 | 2.63 | 5.89 | 1.26 |  |  |  |
| O=c1cc(-c2ccccc2)oc2c(OCCCCNC3CCCCC3)c(O)cc(O)c12 | 10.9 | 11 | 48.6 |  |  |  |  |
| COc1c(O)cc(O)c2c(=O)cc(-c3ccc(C)cc3)oc12 | 24.9 | 25.1 |  |  |  |  |  |
| COc1c(OCCCN2CCNCC2)cc(O)c2c(=O)cc(-c3ccccc3)oc12 | 9.14 | 9.12 | 12 | 10.1 |  |  |  |
| CN(C)CCCCOc1c(O)cc(O)c2c(=O)cc(-c3ccccc3)oc12 | 35.7 | 35.5 |  | > 100 |  |  |  |
| CCCNCCCCOc1c(O)cc(O)c2c(=O)cc(-c3ccccc3)oc12 | 9.99 | 10 | 51 |  |  |  |  |
| COc1c(O)cc(O)c2c(=O)cc(-c3ccc(F)cc3Br)oc12 | 33.5 | 33.9 |  |  |  |  |  |
| COc1c(O)cc(O)c2c(=O)cc(-c3cccc(F)c3)oc12 | 59.4 | 58.9 |  |  |  |  |  |
| COc1c(O)cc(O)c2c(=O)cc(-c3ccc(F)cc3)oc12 | 43.9 | 43.7 |  |  |  |  |  |
| COc1c(OCCCCNCc2ccccc2)cc(O)c2c(=O)cc(-c3ccccc3)oc12 | 45.7 | 45.7 | 48.1 | 4.59 |  |  |  |
| COc1ccc(-c2cc(=O)c3c(O)cc(O)c(OC)c3o2)cc1 [GALANGUSTIN] | 42.4 | 42.7 |  |  |  |  |  |
| COc1c(OCc2cnoc2C)cc(O)c2c(=O)cc(-c3ccccc3)oc12 | 21.7 | 21.9 |  | > 100 |  |  |  |
| O=c1[nH]cc(F)c(=O)[nH]1 [FLUOROURACIL] | 17.2 |  | 10.1 | 16.1 |  |  |  |
| CN(C)CCOc1c(O)cc(O)c2c(=O)cc(-c3ccccc3)oc12 | 40 | 39.8 |  | > 100 |  |  |  |
| CC(CO)NCCOc1c(O)cc(O)c2c(=O)cc(-c3ccccc3)oc12 (stereo not given) | 43.5 | 43.7 | 92.2 |  |  |  |  |
| CNCCOc1c(O)cc(O)c2c(=O)cc(-c3ccccc3)oc12 | 64.2 | 64.6 | 59.9 |  |  |  |  |
| COc1c(OCCCN2CCCC2)cc(O)c2c(=O)cc(-c3ccccc3)oc12 | 15.4 | 15.5 | 17.9 | 1.39 |  |  |  |
| COc1c(O)cc(O)c2c(=O)cc(-c3ccc(Cl)cc3)oc12 | 34.2 | 33.9 |  |  |  |  |  |
| CCN(CC)CCOc1c(O)cc(O)c2c(=O)cc(-c3ccccc3)oc12 | 68.1 | 67.6 |  | > 100 |  |  |  |
| O=c1cc(-c2ccccc2)oc2c(OCCN3CCOCC3)c(O)cc(O)c12 | 39.9 | 39.8 |  | > 100 |  |  |  |

| SMILES | IC50 (HepG2 [1]; read-out: IC50) [µM] | IC50 (HepG2 [1]; read-out: pIC50 (converted)) [µM] | IC50 [2] [µM] | IC50 (A549 [3]) [µM] | Ratio IC50 (HepG2 [4]) | Ratio IC50 (A549 [5]) | Ratio IC50 [6] |
| --- | --- | --- | --- | --- | --- | --- | --- |
| COc1c(OCc2ncc(C)o2)cc(O)c2c(=O)cc(-c3ccccc3)oc12 | 20.2 | 20.4 |  | > 100 |  |  |  |
| CCCCNCCCCOc1c(O)cc(O)c2c(=O)cc(-c3ccccc3)oc12 | 38.9 | 38.9 | 61.9 |  |  |  |  |
| COc1c(OCCCN(CCO)CCO)cc(O)c2c(=O)cc(-c3ccccc3)oc12 | 3.79 | 3.8 | 6.45 | 3 |  |  |  |
| O=c1cc(-c2ccccc2)oc2c(OCCCN3CCCC3)c(O)cc(O)c12 | 58.5 | 58.9 |  | > 100 |  |  |  |
| CN1CCN(CCCOc2c(O)cc(O)c3c(=O)cc(-c4ccccc4)oc23)CC1 | 42.6 | 42.7 |  | > 100 |  |  |  |
| O=c1cc(-c2ccccc2)oc2c(OCCNCCO)c(O)cc(O)c12 | 57 | 57.5 | 59.8 |  |  |  |  |
| O=c1cc(-c2ccccc2)oc2c(OCCN3CCCC3)c(O)cc(O)c12 | 68.5 | 69.2 |  | 67.7 |  |  |  |
| O=c1cc(-c2ccccc2)oc2c(OCCCCN3CCOCC3)c(O)cc(O)c12 | 15.1 | 15.1 |  | 82.3 |  |  |  |
| CCCNCCOc1c(O)cc(O)c2c(=O)cc(-c3ccccc3)oc12 | 98.4 | 97.7 | 63 |  |  |  |  |
| CCN(CC)CCCOc1cc(O)c2c(=O)cc(-c3ccccc3)oc2c1OC | 3.33 | 3.31 | 13.3 | 1.83 |  |  |  |
| COc1c(OCCCN2CCOCC2)cc(O)c2c(=O)cc(-c3ccccc3)oc12 | 6.5 | 6.46 | 3.7 | 2.3 |  |  |  |
| COc1c(O)cc(O)c2c(=O)cc(-c3ccc(Br)cc3)oc12 | 38.2 | 38 |  |  |  |  |  |
| COc1c(OCCCNCc2ccccc2)cc(O)c2c(=O)cc(-c3ccccc3)oc12 | 8.12 | 8.13 | 9.93 | 1.57 |  |  |  |
| CC(C)NCCOc1c(O)cc(O)c2c(=O)cc(-c3ccccc3)oc12 | 14.1 | 14.1 | > 100 |  |  |  |  |
| CC(C)NCCCCOc1c(O)cc(O)c2c(=O)cc(-c3ccccc3)oc12 | 29.9 | 30.2 | 71.2 |  |  |  |  |
| CCN(CC)CCCOc1c(O)cc(O)c2c(=O)cc(-c3ccccc3)oc12 | 67.5 | 67.6 |  | > 100 |  |  |  |
| CN1CCN(CCCCOc2c(O)cc(O)c3c(=O)cc(-c4ccccc4)oc23)CC1 | 15.1 | 15.1 |  | > 100 |  |  |  |
| CN1CCN(CCOc2c(O)cc(O)c3c(=O)cc(-c4ccccc4)oc23)CC1 | 56.6 | 56.2 |  | > 100 |  |  |  |
| COc1c(OCCCCN2CCCC2)cc(O)c2c(=O)cc(-c3ccccc3)oc12 | 3.61 | 3.63 | 6.34 | 1.53 |  |  |  |
| COc1c(O)cc(O)c2c(=O)cc(-c3ccccc3)oc12 [WOGONIN] | 19 | 19.1 | 16.5 | 15.8 |  |  |  |
| COc1c(OCCCCN2CCNCC2)cc(O)c2c(=O)cc(-c3ccccc3)oc12 | 1.07 | 1.07 | 0.98 | 1.74 | 18 | 9 | 17 |
| CCCCNCCOc1c(O)cc(O)c2c(=O)cc(-c3ccccc3)oc12 | 57.2 | 57.5 | 72.4 |  |  |  |  |
| COc1c(OCCCCN2CCCCC2)cc(O)c2c(=O)cc(-c3ccccc3)oc12 | 1.97 | 1.95 | 18.2 | 1.15 |  |  |  |
| COc1c(OCCCCN2CCOCC2)cc(O)c2c(=O)cc(-c3ccccc3)oc12 | 3.3 | 3.31 | 5.3 | 1.52 |  |  |  |
| COc1c(OCCCCN2CCN(C)CC2)cc(O)c2c(=O)cc(-c3ccccc3)oc12 | 1.12 | 1.12 | 5.3 | 1.5 |  |  |  |
